Structures are written as SMILES.

The nature of data set [1]: UPLC-MS/MS pharmacokinetic analyses in tumour, liver and plasma. The following applies: within 1 h after i.v. 50 mg kg^−1 2. Type of data set: in vivo, BALB/c nude mice.
Description: For in vivo prodrug activation, mice received an i.v. injection of 50 mg kg^−1 2 and a subsequent 30 mg kg^−1 TCO-Dox after a 2-h interval. After different time intervals, blood samples were collected from the tail veins, and then, the tumours and livers were harvested for UPLC-MS/MS analysis.
UPLC-MS/MS analyses: UPLC-MS/MS metabolomic analyses were performed using a
multiple reaction-monitoring mode (MRM). Data acquisition and processing were performed using LabSolutions version 5 software. Measurements were carried out at
Dox, solvent A consisted of 0.1% formic acid in water and solvent B consisted of 0.1% formic acid in mass spectrometric grade acetonitrile; (2) for compound TCO-Dox, solvent A consisted of 100% water and solvent B consisted of 100% mass spectrometric grade acetonitrile. Injection volume was 2 or 10 L. The mass spectrometer was interfaced with the liquid chromatograph using an electrospray ion source. The nitrogen nebulizing gas flow was set at 10 L min-1 and the drying gas flow at 15 mL min-1. 4500 V were used for the interface voltage. The temperature of the block heater was maintained at 400 °C and the one of the desolvation line at 250 °C. The MRM transitions were
Dox. The collision gas used was argon at 230 kPa. The dwell time was set to 100 msec and the pause time to 3 msec.
Sample preparation: blood samples were collected from the tail vein of mice. Plasma […]
Data set [2] in a line: Self-assembly and hydrogelation on addition of alkaline phosphatase (ALP). As to conditions: after addition of 10 U mL^−1 ALP (dephosphorylated product). Type of data set: physicochemical. As for the experimental part: The synthesis of the assembly precursor (NapK(Tz)YpF, 2, Fig. 2a) was straightforward (see Supplementary Methods for a detailed protocol). Because KYF was determined to be an excellent self-assembly motif in a tri-peptide census survey, we constructed our assembling molecules based on this sequence. The conjugation of a strong π–π stacking moiety, namely, a naphthalene group, to the N terminus may further enhance the self-assembly potential of this molecule. Phosphorylation on tyrosine (Y) enabled the responsiveness of this motif to phosphatase. All of these components were sequentially conjugated via typical Fmoc-based solid-phase peptide synthesis (SPPS) to yield NapKYpF (1). The capability of self-assembly and hydrogelation of 1 was confirmed by the addition of 10 U mL^−1 alkaline phosphatase (ALP) into a solution of 1 (Supplementary Fig. 1). The dephosphorylated product of 1 formed transparent hydrogels with a network of uniform nanofibres (Supplementary Fig. 2), and the critical hydrogelation concentration was 1.0 mg mL^−1. The ε-amine of Lys on 1 was conjugated with the Tz derivative Tz-COOH (2-(4-(6-methyl-1,2,4,5-tetrazin-3-yl)phenyl) acetic acid) via an NHS-mediated ester–amide exchange reaction to yield 2. […] Upon the addition of ALP (10 U mL^−1) into the solution of 2, a transparent purple hydrogel was formed within 1 h (Fig. 2b inset), and the critical hydrogelation concentration was 1.0 mg mL^−1 (Supplementary Fig. 3). Similar to the formation of a typical hydrogel, investigation by transmission electron microscopy (TEM) confirmed the existence of numerous uniform nanofibres, each with a diameter of approximately 12 nm, which was close to that of hydrogel 1 (Fig. 2b).

For data set [3], the system named is HeLa cells. Put plainly: MTT cell viability / cytotoxicity assay, HeLa cells. Type of data set: cell-based. As for the experimental part: (§1) Cells were plated in flat-bottom 96-well plates at a density of 3 × 10^3 cells per well. After 12 h of cell attachment, the cell culture medium was replaced with 100 μL of pre-warmed media containing the compounds at different concentrations. After 24–72 h of incubation, cell proliferation was assessed by the MTT assay. A fresh mixture of 10 μL of thiazolyl blue tetrazolium bromide (MTT) and 90 μL of medium were freshly added to each well. After incubation for 4 h, the medium was gently removed. The formazan crystals that formed were dissolved in 110 μL of DMSO, and the absorbance was subsequently measured with a plate reader (Perkin Elmer) at 490 nm. EC50 values were calculated using Origin software. To measure the cytotoxicity of 2, HeLa cells, HUVECs, Saos-2 cells and CCC-HEH-2 cells were incubated with 100 μL of 1–500 μM 2 for 24 h, and then, cell viability was determined. To measure the cytotoxicity of TCO-Dox or Dox, HeLa cells, HUVECs, Saos-2 cells or CCC-HEH-2 cells were incubated with 200 μL of 0.001–10 μM TCO-Dox or Dox for 72 h, and the cell viability was determined. To determine the cytotoxicity of activated Dox, HeLa cells, HUVECs, […], and then, 2 was removed and 200 μL of 0.0001–10 μM TCO-Dox was added for 72 h of incubation, and cell viability was determined. […]
(§2) Prodrug activation efficacy in cells: Cells were plated on flat bottom 96-well plates at a
(§3) density of 3x10^3 cells per well. After 12 h attachment, cells were incubated with 100 µL
(§4) 500 µM of 2 for 6 h before removing 2 and the addition of 200 µL 0.0001-10 µM of […]

A further data set concerns CCC-HEH-2 cells. Briefly: MTT cell viability / cytotoxicity assay, CCC-HEH-2 cells. Type of data set: cell-based. The following applies: Homo sapiens; 72 h cytotoxicity, MTT; Activated Dox: cells pre-incubated with 500 μM 2 for 6 h, then TCO-Dox 72 h; read-out: EC50, CCC-HEH-2. Here is the method:
(§5) Cells were plated in flat-bottom 96-well plates at a density of 3 × 10^3 cells per well. After 12 h of cell attachment, the cell culture medium was replaced with 100 μL of pre-warmed media containing the compounds at different concentrations. After 24–72 h of incubation, cell proliferation was assessed by the MTT assay. A fresh mixture of 10 μL of thiazolyl blue tetrazolium bromide (MTT) and 90 μL of medium were freshly added to each well. After incubation for 4 h, the medium was gently removed. The formazan crystals that formed were dissolved in 110 μL of DMSO, and the absorbance was subsequently measured with a plate reader (Perkin Elmer) at 490 nm. EC50 values were calculated using Origin software. To measure the cytotoxicity of 2, HeLa cells, HUVECs, Saos-2 cells and CCC-HEH-2 cells were incubated with 100 μL of 1–500 μM 2 for 24 h, and then, cell viability was determined. To measure the cytotoxicity of TCO-Dox or Dox, HeLa cells, HUVECs, Saos-2 cells or CCC-HEH-2 cells were incubated with 200 μL of 0.001–10 μM TCO-Dox or Dox for 72 h, and the cell viability was determined. To determine the cytotoxicity of activated Dox, HeLa cells, HUVECs, Saos-2 cells or CCC-HEH-2 cells were pre-incubated with 100 μL of 500 μM 2 for 6 h, and then, 2 was removed and 200 μL of 0.0001–10 μM TCO-Dox was added for 72 h of incubation, and cell viability was determined. […]

A short description of data set [4]: Systemic toxicity in treated mice (body weight, death, organ histology).
Description: When the tumour volume reached approximately 80–100 mm^3, the mice were divided into five groups (n = 8) and used for therapeutic studies. Mice in the treatment group received an i.v. injection of 50 mg kg^−1 2 and a subsequent 30 mg kg^−1 TCO-Dox after a 2-h interval. In the control groups, mice were received 50 mg kg^−1 2, 30 mg kg^−1 TCO-Dox, 5 mg kg^−1 Dox or saline. The mice received three treatment courses on day 0, day 3 and day 6. Tumour size and body weight were measured every 2 days. After 14 days, the mice were sacrificed. Tumours and main organs were obtained for histological examination with HE staining.
Effect of the dosage of Dox to the mice body weight.
The arrows on x-axis marked the administrations of Dox (n= 8).
indicate standard deviation.
Histological examination of heart, liver, spleen, lung and
Organs were harvested after treatment at day 14 and stained by hematoxylin and
The subject of a further data set is Saos-2 cells. Briefly: MTT cell viability / cytotoxicity assay, Saos-2 cells. Type of data set: cell-based. As for the experimental part: as §5
Prodrug activation efficacy in cells: Cells were plated on flat bottom 96-well plates at a density of 3x10^3 cells per well. After 12 h attachment, cells were incubated with 100 µL 500 µM of 2 for 6 h before removing 2 and the addition of 200 µL 0.0001-10 µM of TCO-Dox. Cells were further incubated for 72 h before measuring the viability by the MTT […]
Clonogenic assay of cells in vitro: Clonogenic assay was performed according to the standard protocol.6 2×10^5 attached cells were treated with 500 µM of 2 for 6 h in culture dishes. Cells were then detached, re-suspended in cultural medium and counted accurately. The cell suspension was diluted into the desired seeding concentration and cells were seeded in 6-well plates at a density of 200 cells per well for CCC-HEH-2 and 400 cells per well for HeLa, Saos-2 and HUVECs. After incubation for 10 days, the cultural medium was removed and cells were rinsed carefully with PBS. 2 mL of a mixture of 6.0% (vol/vol) glutaraldehyde and 0.5% (wt/vol) crystal violet was added and kept for 30 min.
The glutaraldehyde crystal violet mixture was removed carefully. The colonies were rinsed with water and dried in normal air at room temperature. The number of the colonies was counted using a stereomicroscope.
When untreated cells are plated as a single-cell suspension at low densities, they will grow to colonies. The plating efficiency (PE) is the ratio of the number of colonies to the […]
(Supplementary Equation 1)
The number of colonies that arise after treatment of cells, expressed in terms of PE, is called the surviving fraction (SF): […]

In a further data set the test system is HeLa tumours. Briefly: Tumour inhibition test, subcutaneous HeLa xenograft. Type of data set: in vivo, BALB/c nude mice. The following applies: i.v., three courses (day 0, 3, 6); 50 mg kg^−1 2, 30 mg kg^−1 TCO-Dox, 5 mg kg^−1 Dox, or 50 mg kg^−1 2 then 30 mg kg^−1 TCO-Dox after 2 h. Here is the method:
All animal studies were performed in accordance with the Institutional Animal Use and Care Regulations approved by the National Institutes of Health Clinical Center/Animal Care and Use Committee (NIH CC/ACUC). Athymic female nude mice (5–6 weeks old) were purchased from Beijing Huafukang Bioscience Co., Ltd., and raised in a specific-pathogen-free barrier facility. Tumour-bearing mice were established by subcutaneously injecting a suspension of 10^6 HeLa cells per mouse into the front flank of each nude mouse.
After 14 days, the mice were sacrificed.

For the next data set, the system named is HUVECs. Put plainly: MTT cell viability / cytotoxicity assay, HUVECs. Type of data set: cell-based. As to conditions: Homo sapiens, HUVEC, 72 h cytotoxicity, MTT; Activated Dox: cells pre-incubated with 500 μM 2 for 6 h, then TCO-Dox 72 h; read-out: EC50, HUVECs. Here is the method:
as §1, §2, §3, §4

The subject of data set [5] is HeLa cells. Briefly: Intracellular Tz accumulation by fluorescence liberation from TCO-CMR, HeLa cells. Type of data set: cell-based. The following applies: 50 or 500 μM Tz-COOH for 6 h, then 50 μM TCO-CMR 1-24 h. Here is the method: Next, we tested the intracellular accumulation of Tz via EISA in an attempt to differentiate cancer cells from normal cells. First, we investigated the accumulation of Tz in HeLa cells and HUVECs over time via fluorescence liberation from TCO-CMR (Fig. 3a). […] The cells were then washed with PBS thoroughly before the addition of an excessive amount of TCO-CMR (100 μL, 50 μM), and the reaction of TCO-CMR with the intracellular accumulated Tz was allowed to proceed for up to 24 h (Supplementary Fig. 8). In this experimental setting, the total liberated fluorescence was proportional to the amount of 3 accumulated inside the cells. […] Therefore, the optimized concentration of 2 (e.g. 500 μM) and incubation time (e.g. 6 h) were selected to differentiate between cancer and normal cells according to liberated fluorescence intensity (Fig. 3c). This differentiation was dependent on the considerably different phosphatase activity between these cell lines (Supplementary Fig. 11), allowing EISA to specifically occur in cancer cells as opposed to normal cells.
All cells were purchased from the National Infrastructure of Cell Line Resource (Beijing, China). HeLa cells, HUVECs and CCC-HEH-2 cells were cultured in a humidified CO2 (5%) incubator at 37 °C in DMEM supplemented with 10% foetal bovine serum (FBS, Gibco) and 1% Pen Strep (PS, Gibco). Saos-2 cells were cultured in a humidified CO2 (5%) incubator at 37 °C in McCoy’s 5A medium supplemented with 10% FBS and 1% PS. Cells were plated in flat-bottom 96-well plates (Corning) at a density of 10^4 cells per well and allowed to attach for 12 h. Then, the culture medium was replaced with 100 μL of pre-warmed medium containing 2 at different concentrations (100–500 μM). After incubation for different durations (1–24 h), the cells were rinsed with PBS, and then 100 μL of 50 μM TCO-CMR (dissolved in PBS) was added for real-time detection of the fluorescence intensity of coumarin in a plate reader (Perkin Elmer).

Turning to `Cc1nnc(-c2ccc(CC(=O)NCCCCC(NC(=O)Cc3ccc4ccccc4c3)C(=O)NC(Cc3ccc(O)cc3)C(=O)NC(Cc3ccccc3)C(=O)O)cc2)nn1` (stereo not drawn) [compound 3, NapK(Tz)YF], the concentration in tumours entry in [1] is recorded as “increased significantly within 1 h”.

For the compound `NCCCCC(NC(=O)Cc1ccc2ccccc2c1)C(=O)NC(Cc1ccc(OP(=O)(O)O)cc1)C(=O)NC(Cc1ccccc1)C(=O)O` (stereo not drawn) [compound 1, NapKYpF], the critical hydrogelation concentration in data set [2] was determined as 1.0 mg/mL.

As a reminder, the EC50 is the concentration giving half of the maximal effect. On to `COc1cccc2c1C(=O)c1c(O)c3c(c(O)c1C2=O)C[C@@](O)(C(=O)CO)C[C@@H]3O[C@H]1C[C@H](N)[C@H](O)[C@H](C)O1` [Dox, doxorubicin, reference compound], for which the EC50 was determined as 732 nM with HeLa cells [3] (Homo sapiens, HeLa, 72 h cytotoxicity, MTT, Activated Dox: cells pre-incubated with 500 μM 2 for 6 h, then TCO-Dox 72 h, read-out: EC50, HeLa); 84 nM in the data set with CCC-HEH-2 cells; 425 nM in the data set on Saos-2 cells (Homo sapiens, SAOS-2, 72 h cytotoxicity, MTT, Activated Dox: cells pre-incubated with 500 μM 2 for 6 h, then TCO-Dox 72 h, read-out: EC50, Saos-2); 133 nM in the data set with HUVECs. Also, the “EC50 ratio CCC-HEH-2/HeLa” value with HeLa cells [3] (ratio of 72 h EC50 values) was 0.115. The “EC50 ratio HUVECs/HeLa” value with HeLa cells [3] (ratio of 72 h EC50 values) was found to be 0.182. Moreover, the death of mice result in data set [4] (6.0 mg kg-1 Dox) is given as “the mice began to die eleven day”; in data set [4] (7.5 mg kg-1 Dox), “the mice began to die six”; in data set [4] (15 mg kg-1 Dox), “the mice died within five days”. For the same compound, the “EC50 ratio CCC-HEH-2/Saos-2” value in the data set with Saos-2 cells (ratio of 72 h EC50 values) amounted to 0.198. Moreover, the “EC50 ratio HUVECs/Saos-2” value with Saos-2 cells (ratio of 72 h EC50 values) was 0.313. Besides, in the data set with HeLa tumours, the tumour growth result is recorded as “tumour growth could be inhibited”.

In the case of `Cc1nnc(-c2ccc(CC(=O)O)cc2)nn1` [Tz-COOH, 2-(4-(6-methyl-1,2,4,5-tetrazin-3-yl)phenyl) acetic acid, reference compound], the “accumulation in HeLa cells” value in the data set on HeLa cells [5] is given as “hardly accumulated”.

For the origin of these results see paper PMC6261997, “Synergistic enzymatic and bioorthogonal reactions for selective prodrug activation in living systems” (Nature Communications, 2018).
